Data from patent US7625841B2, “Substituted thiene-3-ylsulphonylamino(thio)carbonyltriazolin(ethi)ones” (Bayer CropScience AG, priority 2001, dated 2009).

Tests used:
Assay type in all cases: in vivo
[1] = test system: crop plants, such as, for example, maize, soyabean and wheat; assay: Pre-emergence test, summary for crop plants
Procedure: (§1) • Solvent: 5 parts by weight of acetone • Emulsifier: 1 part by weight of alkylaryl polyglycol ether
(§2) To produce a suitable preparation of active compound, 1 part by weight of active compound is mixed with the stated amount of solvent, the stated amount of emulsifier is added and the concetrate is diluted with water to the desired concentration.
(§3) Seeds of the test plants are sown in normal soil. After 24 hours, the soil is sprayed with the preparation of active compound such that the particular amount of active compound desired is applied per unit area. The concentration of active compound in the spray liquor is chosen such that the particular amount of active compound desired is applied in 1000 litres of water per hectare.
(§4) After three weeks, the degree of damage to the plants is rated in % damage in comparison to the development of the untreated control. The figures denote: • 0%=no effect (like untreated control) • 100%=total destruction

[2] = test system: weeds; assay: Post-emergence test, summary for weeds
Procedure: as §1
(§5) To produce a suitable preparation of active compound, 1 part by weight of active compound is mixed with the stated amount of solvent, the stated amount of emulsifier is added and the concentrate is diluted with water to the desired concentration.
(§6) Test plants of a height of 5-15 cm are sprayed with the preparation of active compound such that the particular amounts of active compound desired are applied per unit area. The concentration of the spray liquor is chosen such that the particular amounts of active compound desired are applied in 1000 l of water/ha.
(§7) After three weeks, the degree of damage to the plants is rated in % damage in comparison to the development of the untreated control.
(§8) The figures denote: • 0%=no effect (like untreated control) • 100%=total destruction

[3] = test system: crop plants such as, for example, maize, oilseed rape and wheat; assay: Post-emergence test, summary for crop plants
Procedure: as §1, §5, §6, §7, §8

[4] = test system: Matricaria; assay: Pre-emergence test/greenhouse; details: greenhouse, application rate 15 gai/ha, rated after three weeks, 0%=no effect, 100%=total destruction
Procedure: as §1, §2, §3, §4

[5] = test system: Setaria; assay: Pre-emergence test/greenhouse; details: greenhouse, application rate 15 gai/ha, rated after three weeks, 0%=no effect, 100%=total destruction
Procedure: as §1, §2, §3, §4

[6] = test system: Alopecurus; assay: Pre-emergence test/greenhouse; details: greenhouse, application rate 15 gai/ha, rated after three weeks, 0%=no effect, 100%=total destruction
Procedure: as §1, §2, §3, §4

[7] = test system: Stellaria; assay: Pre-emergence test/greenhouse; details: greenhouse, application rate 15 gai/ha, rated after three weeks, 0%=no effect, 100%=total destruction
Procedure: as §1, §2, §3, §4

[8] = test system: maize; assay: Pre-emergence test/greenhouse; details: greenhouse, application rate 15 gai/ha, rated after three weeks, 0%=no effect, 100%=total destruction
Procedure: as §1, §2, §3, §4

[9] = test system: Amaranthus; assay: Pre-emergence test/greenhouse; details: greenhouse, application rate 15 gai/ha, rated after three weeks, 0%=no effect, 100%=total destruction
Procedure: as §1, §2, §3, §4

[10] = test system: wheat; assay: Pre-emergence test/greenhouse; details: greenhouse, application rate 15 gai/ha, rated after three weeks, 0%=no effect, 100%=total destruction
Procedure: as §1, §2, §3, §4

[11] = test system: soybeans; assay: Pre-emergence test/greenhouse; details: greenhouse, application rate 15 gai/ha, rated after three weeks, 0%=no effect, 100%=total destruction
Procedure: as §1, §2, §3, §4

[12] = test system: Digitaria; assay: Post-emergence test/greenhouse; details: greenhouse, application rate 15 gai/ha, rated after three weeks, 0%=no effect, 100%=total destruction
Procedure: as §1, §5, §6, §7, §8

[13] = test system: Setaria; assay: Post-emergence test/greenhouse; details: greenhouse, application rate 15 gai/ha, rated after three weeks, 0%=no effect, 100%=total destruction
Procedure: as §1, §5, §6, §7, §8

[14] = test system: Alopecurus; assay: Post-emergence test/greenhouse; details: greenhouse, application rate 15 gai/ha, rated after three weeks, 0%=no effect, 100%=total destruction
Procedure: as §1, §5, §6, §7, §8

[15] = test system: Echinochloa; assay: Post-emergence test/greenhouse; details: greenhouse, application rate 15 gai/ha, rated after three weeks, 0%=no effect, 100%=total destruction
Procedure: as §1, §5, §6, §7, §8

[16] = test system: Avena fatua; assay: Post-emergence test/greenhouse; details: greenhouse, application rate 15 gai/ha, rated after three weeks, 0%=no effect, 100%=total destruction
Procedure: as §1, §5, §6, §7, §8

[17] = test system: maize; assay: Post-emergence test/greenhouse; details: greenhouse, application rate 15 gai/ha, rated after three weeks, 0%=no effect, 100%=total destruction
Procedure: as §1, §5, §6, §7, §8

[18] = test system: Lolium; assay: Post-emergence test/greenhouse; details: greenhouse, application rate 15 gai/ha, rated after three weeks, 0%=no effect, 100%=total destruction
Procedure: as §1, §5, §6, §7, §8

[19] = test system: Bromus; assay: Post-emergence test/greenhouse; details: greenhouse, application rate 15 gai/ha, rated after three weeks, 0%=no effect, 100%=total destruction
Procedure: as §1, §5, §6, §7, §8

[20] = test system: weeds; assay: Pre-emergence test, summary for weeds
Procedure: as §1, §2, §3, §4

[21] = test system: Solanum; assay: Pre-emergence test/greenhouse; details: greenhouse, application rate 15 gai/ha, rated after three weeks, 0%=no effect, 100%=total destruction
Procedure: as §1, §2, §3, §4

[22] = test system: Lolium; assay: Pre-emergence test/greenhouse; details: greenhouse, application rate 15 gai/ha, rated after three weeks, 0%=no effect, 100%=total destruction
Procedure: as §1, §2, §3, §4

[23] = test system: Viola; assay: Post-emergence test/greenhouse; details: greenhouse, application rate 15 gai/ha, rated after three weeks, 0%=no effect, 100%=total destruction
Procedure: as §1, §5, §6, §7, §8

[24] = test system: wheat; assay: Post-emergence test/greenhouse; details: greenhouse, application rate 15 gai/ha, rated after three weeks, 0%=no effect, 100%=total destruction
Procedure: as §1, §5, §6, §7, §8

[25] = test system: Bromus; assay: Pre-emergence test/greenhouse; details: greenhouse, application rate 15 gai/ha, rated after three weeks, 0%=no effect, 100%=total destruction
Procedure: as §1, §2, §3, §4

[26] = test system: Polygonum; assay: Pre-emergence test/greenhouse; details: greenhouse, application rate 15 gai/ha, rated after three weeks, 0%=no effect, 100%=total destruction
Procedure: as §1, §2, §3, §4

[27] = test system: Xanthium; assay: Pre-emergence test/greenhouse; details: greenhouse, application rate 15 gai/ha, rated after three weeks, 0%=no effect, 100%=total destruction
Procedure: as §1, §2, §3, §4

[28] = test system: Xanthium; assay: Post-emergence test/greenhouse; details: greenhouse, application rate 15 gai/ha, rated after three weeks, 0%=no effect, 100%=total destruction
Procedure: as §1, §5, §6, §7, §8

[29] = test system: Datura; assay: Post-emergence test/greenhouse; details: greenhouse, application rate 15 gai/ha, rated after three weeks, 0%=no effect, 100%=total destruction
Procedure: as §1, §5, §6, §7, §8

[30] = test system: Polygonum; assay: Post-emergence test/greenhouse; details: greenhouse, application rate 15 gai/ha, rated after three weeks, 0%=no effect, 100%=total destruction
Procedure: as §1, §5, §6, §7, §8

SMILES	tolerance by crop plants [1]	activity against weeds compared with the known compounds (A) and (B) [2]	compatibility with crop plants compared with the known compounds (A) and (B) [3]	degree of damage to the plants, Matricaria [4] [%]	degree of damage to the plants, Alopecurus [6] [%]	degree of damage to the plants, Stellaria [7] [%]	degree of damage to the plants, maize [8] [%]	degree of damage to the plants, Amaranthus [9] [%]	degree of damage to the plants, wheat [10] [%]	degree of damage to the plants, Alopecurus [14] [%]	degree of damage to the plants, Echinochloa [15] [%]	degree of damage to the plants, Avena fatua [16] [%]	degree of damage to the plants, maize [17] [%]	degree of damage to the plants, Lolium [18] [%]	degree of damage to the plants, Bromus [19] [%]	activity against weeds compared with the known compounds (A) to (G) [20]	degree of damage to the plants, Solanum [21] [%]	degree of damage to the plants, Lolium [22] [%]	degree of damage to the plants, wheat [24] [%]	degree of damage to the plants, Bromus [25] [%]	other results
COCc1nn(C(=O)NS(=O)(=O)c2c(C(=O)OC)csc2C)c(=O)n1C [Example 18]	tolerated well by crop plants	considerably stronger activity against weeds	substantially better compatibility with crop plants	100	95	95	0	95	0	95	95	95	0	95	80	considerably stronger activity against weeds					degree of damage to the plants, Setaria [5]: 95%; degree of damage to the plants, soybeans [11]: 0%; degree of damage to the plants, Digitaria [12]: 95%; degree of damage to the plants, Setaria [13]: 100%
CCSc1nn(C(=O)NS(=O)(=O)c2c(C(=O)OC)csc2C)c(=O)n1C [Example 20]	tolerated well by crop plants	considerably stronger activity against weeds	substantially better compatibility with crop plants	100	90	100	0	95	0	90	100				80	considerably stronger activity against weeds	100	95	0		degree of damage to the plants, soybeans [11]: 0%; degree of damage to the plants, Viola [23]: 100%
COC(=O)c1csc(C)c1S(=O)(=O)NC(=O)n1nc(C2CC2)n(C)c1=O [Example 22]	tolerated well by crop plants	considerably stronger activity against weeds	substantially better compatibility with crop plants		95	100	0		0	99		80	0		95	considerably stronger activity against weeds	100	95	0	100	degree of damage to the plants, Polygonum [26]: 95%; degree of damage to the plants, Digitaria [12]: 95%; degree of damage to the plants, Setaria [13]: 90%
CCOC(=O)c1csc(C)c1S(=O)(=O)NC(=O)n1nc(OCC)n(C)c1=O [Example 55]	tolerated well by crop plants	considerably stronger activity against weeds	substantially better compatibility with crop plants		95	100	0		0	90	90		0	90	90	considerably stronger activity against weeds	100	90		95	degree of damage to the plants, Xanthium [27]: 95%; degree of damage to the plants, Polygonum [26]: 95%; degree of damage to the plants, Xanthium [28]: 95%; degree of damage to the plants, Datura [29]: 95%; degree of damage to the plants, Polygonum [30]: 90%
CCOC(=O)c1csc(C)c1S(=O)(=O)NC(=O)n1nc(OC)n(C2CC2)c1=O [Example 56]	tolerated well by crop plants	considerably stronger activity against weeds	substantially better compatibility with crop plants	100		100	0	100	0		95	90		90	90	considerably stronger activity against weeds	100	95	0	95	degree of damage to the plants, Xanthium [27]: 95%; degree of damage to the plants, Viola [23]: 95%; degree of damage to the plants, Xanthium [28]: 95%; degree of damage to the plants, Datura [29]: 90%
